# Data from PubChem BioAssay (NCI).
#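 Test compounds were applied to cells in 96-well plates for 48 hours at 5 doses. GI50 is the concentration that inhibits growth by half. TGI: total growth inhibition.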
# Experiments:
# Assay in all cases: inhibition of tumour cell growth, NCI panel, 48 h
# HOP-62 NSCLC = system: HOP-62 NSCLC
# SF-268 CNS = system: SF-268 CNS
# SNB-75 CNS = system: SNB-75 CNS
# RPMI-8226 leukemia = system: RPMI-8226 leukemia
# NCI-H226 lung = system: NCI-H226 lung
# KM12 colon = system: KM12 colon
# EKVX NSCLC = system: EKVX NSCLC
# IGROV1 ovarian = system: IGROV1 ovarian
# A498 renal = system: A498 renal
# PC-3 prostate = system: PC-3 prostate
SMILES,TGI (HOP-62 NSCLC) [µM],TGI (SF-268 CNS) [µM],TGI (SNB-75 CNS) [µM],TGI (RPMI-8226 leukemia) [µM],TGI (NCI-H226 lung) [µM],TGI (KM12 colon) [µM],TGI (EKVX NSCLC) [µM],GI50 (HOP-62 NSCLC) [µM],GI50 (SF-268 CNS) [µM],GI50 (SNB-75 CNS) [µM],GI50 (IGROV1 ovarian) [µM],TGI (IGROV1 ovarian) [µM],GI50 (A498 renal) [µM],TGI (A498 renal) [µM],GI50 (RPMI-8226 leukemia) [µM],GI50 (NCI-H226 lung) [µM],GI50 (KM12 colon) [µM],GI50 (PC-3 prostate) [µM],TGI (PC-3 prostate) [µM],GI50 (EKVX NSCLC) [µM]
CN(C)C=Nc1nc(=O)n(C2CCC(CO)O2)cc1F (stereo unspecified),> 100,> 100,> 100,> 100,> 100,> 100,> 100,–,–,–,–,–,–,–,–,–,–,–,–,–
O=C1NC(=NCc2ccccc2)S/C1=C\c1ccc2ncccc2c1,> 25,> 25,> 25,> 25,> 25,> 25,–,> 25,> 25,> 25,> 25,> 25,> 25,> 25,> 25,> 25,> 25,> 25,> 25,–
COc1ccc2c(c1)[n+]([O-])c(C(N)=O)c(N)[n+]2[O-],> 100,–,> 100,> 100,> 100,> 100,> 100,–,–,–,–,> 100,–,> 100,–,–,–,–,–,–
CCOC(=O)C1=C(C)N(NC(=O)Nc2ccccc2)C2(N)N(NC(=O)Nc3ccccc3)C(C)=C(C(=O)OCC)C12C(=O)OCC (stereo unspecified),84.7,> 100,98.1,> 100,–,> 100,> 100,–,–,–,–,> 100,–,> 100,–,–,–,–,–,–
C/C(CN1C(=O)c2ccccc2C1=O)=N\NS(=O)(=O)c1ccc(Cl)cc1,> 100,–,> 100,> 100,> 100,> 100,> 100,–,–,–,–,> 100,–,> 100,–,–,–,–,–,–
COc1cc(-c2nn(-c3cccc(NC(=O)c4ccccc4)c3)cc2-c2ccncc2)ccc1Cl,> 100,> 54.8,> 100,> 100,> 100,96.9,–,2.49,0.596,0.575,0.572,> 100,0.197,1.35,0.457,3.3,0.467,0.333,> 33.5,–
COc1ccc(/C=C/COC(C)=O)cc1OC,–,> 100,> 100,> 100,> 100,> 100,> 100,–,–,–,–,> 100,–,–,–,–,–,–,–,–
Cn1cc(-c2cc3c(N4CCN(c5ncc([C@@](C)(N)c6ccc(F)cc6)cn5)CC4)ncnn3c2)cn1,> 100,–,> 100,–,–,> 100,> 100,6.31,–,1.39,2.7,> 100,6.24,> 100,–,–,3.49,1.99,> 100,4.14
O=C(/C=C/c1c(O)ccc2ccccc12)c1ccc([N+](=O)[O-])cc1,> 100,> 100,> 100,> 100,> 100,> 100,> 100,–,–,–,–,> 100,–,> 100,–,–,–,–,–,–
CN(C)CC1CCCC/C1=N/O (stereo unspecified),> 100,> 100,> 100,> 100,> 100,> 100,> 100,–,–,–,–,> 100,–,> 100,–,–,–,–,–,–
CC(=O)[O-].CC(=O)[O-].O=C(N/N=C/c1cc(Cl)cc(Cl)c1O)c1ccncc1.[Cu+2],> 100,> 100,> 100,> 100,> 100,> 100,> 100,–,–,–,–,> 100,–,> 100,–,–,–,–,–,–
COc1c(CC(C)=O)ccc2c1C(=O)c1ccc(C=O)c(OC(C)=O)c1C2=O,–,–,77.8,63.3,36.2,39.2,56.9,–,–,–,–,44.2,–,80.3,–,–,–,–,–,–
N#CCCC[Si]12OCCN(CCO1)CCO2,–,> 100,> 100,> 100,> 100,> 100,> 100,–,–,–,–,> 100,–,> 100,–,–,–,–,–,–
Cc1ccc(S(=O)(=O)N2CCC2c2ccccc2)cc1 (stereo unspecified),> 100,> 100,> 100,> 100,> 100,> 100,> 100,–,–,–,–,> 100,–,> 100,–,–,–,–,–,–
C[C@@]1(O)CC[C@]2(C)C3CCCC3[C@H]12 (stereo partly specified),> 100,> 100,> 100,> 100,> 100,> 100,> 100,–,–,–,–,> 100,–,> 100,–,–,–,–,–,–
C=C(C)C12OC1[C@@]1(C)C(=CC2=O)CCC(O)[C@@H]1C (stereo partly specified),11.7,14.7,38.8,24,–,16.7,6.69,–,–,–,–,13.3,–,62.5,–,–,–,–,27.8,–
CC(C)(C)[Si](C)(C)OC1[C@@H](O[Si](C)(C)C(C)(C)C)[C@@H](CNC(=O)NC(=O)C(F)(F)F)O[C@H]1n1cnc2c(NC(=O)Nc3ccccc3)ncnc21 (stereo partly specified),14.1,13.4,12.7,28.6,11.8,11.4,–,7.41,6.22,5.68,8.32,17.4,6.34,13,7.11,4.61,4.02,1.82,7.91,–
C=C1C[C@H](O)[C@H](Br)C(C)(C)[C@@]12CCC(C)=C(Cl)C2,4.92,6.25,0.785,1.25,–,2.11,1.37,0.377,0.396,0.16,0.25,11.7,0.838,4.04,0.229,–,0.311,0.0573,1.87,0.0371
CC(=O)N[C@@H](Cc1ccc(OP(=O)(O)O)cc1)C(=O)N[C@H]1CCC(=O)N2CCC[C@@H](C(=O)Nc3cccc4ccccc34)N2C1=O,> 25,> 25,> 25,> 25,> 25,> 25,–,> 25,> 25,> 19.8,> 25,> 25,> 25,> 25,> 25,> 25,> 25,> 25,> 25,–
